Results taken from ChEMBL document CHEMBL4804284.
Calls of active or inactive are those of the source. The rule behind the calls is not given here.

How the values were obtained:
[1] = molecular target: Interleukin-1 receptor-associated kinase 3 (Homo sapiens) (UniProt Q9Y616); test: Inhibition of DNA-tagged human IRAK3 assessed as percent of control at 50000 nM by qPCR analysis relative to control; set-up: scale not given: the % may be the effect or the level left
[2] = molecular target: Tyrosine-protein kinase HCK (Homo sapiens) (UniProt P08631); test: Inhibition of DNA-tagged human HCK assessed as percent of control at 50000 nM by qPCR analysis relative to control; set-up: scale not given: the % may be the effect or the level left
[3] = molecular target: Fibroblast growth factor receptor 1 (Homo sapiens) (UniProt P11362); test: Inhibition of DNA-tagged human FGFR1 assessed as percent of control at 50000 nM by qPCR analysis relative to control; set-up: scale not given: the % may be the effect or the level left
[4] = molecular target: Ephrin type-B receptor 2 (Homo sapiens) (UniProt P29323); test: Inhibition of DNA-tagged human EPHB2 assessed as percent of control at 50000 nM by qPCR analysis relative to control; set-up: scale not given: the % may be the effect or the level left
[5] = molecular target: Epithelial discoidin domain-containing receptor 1 (Homo sapiens) (UniProt Q08345); test: Inhibition of DNA-tagged human DDR1 assessed as percent of control at 50000 nM by qPCR analysis relative to control; set-up: scale not given: the % may be the effect or the level left
[6] = molecular target: Peripheral plasma membrane protein CASK (Homo sapiens) (UniProt O14936); test: Inhibition of DNA-tagged human CASK assessed as percent of control at 50000 nM by qPCR analysis relative to control; set-up: scale not given: the % may be the effect or the level left
[7] = molecular target: Tyrosine-protein kinase Blk (Homo sapiens) (UniProt P51451); test: Inhibition of DNA-tagged human BLK assessed as percent of control at 50000 nM by qPCR analysis relative to control; set-up: scale not given: the % may be the effect or the level left
[8] = molecular target: Activin receptor type-1-like (Homo sapiens) (UniProt P37023); test: Inhibition of DNA-tagged human ACVRL1 assessed as percent of control at 50000 nM by qPCR analysis relative to control; set-up: scale not given: the % may be the effect or the level left
[9] = tested on: Tyrosine-protein kinase ABL1 (Homo sapiens), P00519 [T315I]; test: Inhibition of DNA-tagged phosphorylated human ABL1 T315I mutant assessed as percent of control at 50000 nM by qPCR analysis relative to control; set-up: scale not given: the % may be the effect or the level left
[10] = tested on: Tyrosine-protein kinase ABL1 (Homo sapiens), P00519 [UNDEFINED MUTATION]; test: Inhibition of DNA-tagged phosphorylated human ABL1 […] mutant assessed as percent of control at 50000 nM by qPCR analysis relative to control; set-up: scale not given: the % may be the effect or the level left
HEL = test: Cytotoxicity against human HEL cells at 0.1-100 uM assessed as decrease in cell viability relative to control; assay type: functional, cell-based
[11] = molecular target: Tyrosine-protein kinase Lck (Homo sapiens) (UniProt P06239); test: Inhibition of DNA-tagged human LCK assessed as percent of control at 50000 nM by qPCR analysis relative to control; set-up: scale not given: the % may be the effect or the level left
[12] = molecular target: Leucine-rich repeat serine/threonine-protein kinase 2 (Homo sapiens) (UniProt Q5S007); test: Inhibition of DNA-tagged human LRRK2 assessed as percent of control at 50000 nM by qPCR analysis relative to control; set-up: scale not given: the % may be the effect or the level left
[13] = molecular target: Mitogen-activated protein kinase kinase kinase 3 (Homo sapiens) (UniProt Q99759); test: Inhibition of DNA-tagged human MAP3K3 assessed as percent of control at 50000 nM by qPCR analysis relative to control; set-up: scale not given: the % may be the effect or the level left
[14] = molecular target: Myosin light chain kinase 2, skeletal/cardiac muscle (Homo sapiens) (UniProt Q9H1R3); test: Inhibition of DNA-tagged human MYLK2 assessed as percent of control at 50000 nM by qPCR analysis relative to control; set-up: scale not given: the % may be the effect or the level left
[15] = molecular target: Mitogen-activated protein kinase 12 (Homo sapiens) (UniProt P53778); test: Inhibition of DNA-tagged human p38-gamma assessed as percent of control at 50000 nM by qPCR analysis relative to control; set-up: scale not given: the % may be the effect or the level left
[16] = molecular target: Serine/threonine-protein kinase PAK 3 (Homo sapiens) (UniProt O75914); test: Inhibition of DNA-tagged human PAK3 assessed as percent of control at 50000 nM by qPCR analysis relative to control; set-up: scale not given: the % may be the effect or the level left
[17] = molecular target: Serine/threonine-protein kinase PAK 5 (Homo sapiens) (UniProt Q9P286); test: Inhibition of DNA-tagged human PAK7 assessed as percent of control at 50000 nM by qPCR analysis relative to control; set-up: scale not given: the % may be the effect or the level left
[18] = molecular target: Cyclin-dependent kinase 15 (Homo sapiens) (UniProt Q96Q40); test: Inhibition of DNA-tagged human PFTAIRE2 assessed as percent of control at 50000 nM by qPCR analysis relative to control; set-up: scale not given: the % may be the effect or the level left
[19] = molecular target: cAMP-dependent protein kinase catalytic subunit beta (Homo sapiens) (UniProt P22694); test: Inhibition of DNA-tagged human PKAC-beta assessed as percent of control at 50000 nM by qPCR analysis relative to control; set-up: scale not given: the % may be the effect or the level left
[20] = molecular target: Protein kinase C theta type (Homo sapiens) (UniProt Q04759); test: Inhibition of DNA-tagged human PRKCQ assessed as percent of control at 50000 nM by qPCR analysis relative to control; set-up: scale not given: the % may be the effect or the level left
[21] = molecular target: Receptor-interacting serine/threonine-protein kinase 1 (Homo sapiens) (UniProt Q13546); test: Inhibition of DNA-tagged human RIPK1 assessed as percent of control at 50000 nM by qPCR analysis relative to control; set-up: scale not given: the % may be the effect or the level left
[22] = molecular target: Ribosomal protein S6 kinase alpha-5 (Homo sapiens) (UniProt O75582); test: Inhibition of DNA-tagged human C-terminal RPS6KA5 kinase domain 2 assessed as percent of control at 50000 nM by qPCR analysis relative to control; set-up: scale not given: the % may be the effect or the level left
[23] = molecular target: Serine/threonine-protein kinase SBK1 (Homo sapiens) (UniProt Q52WX2); test: Inhibition of DNA-tagged human SBK1 assessed as percent of control at 50000 nM by qPCR analysis relative to control; set-up: scale not given: the % may be the effect or the level left
[24] = molecular target: STE20-like serine/threonine-protein kinase (Homo sapiens) (UniProt Q9H2G2); test: Inhibition of DNA-tagged human SLK assessed as percent of control at 50000 nM by qPCR analysis relative to control; set-up: scale not given: the % may be the effect or the level left
[25] = molecular target: SNF-related serine/threonine-protein kinase (Homo sapiens) (UniProt Q9NRH2); test: Inhibition of DNA-tagged human SNRK assessed as percent of control at 50000 nM by qPCR analysis relative to control; set-up: scale not given: the % may be the effect or the level left
[26] = molecular target: Serine/threonine-protein kinase 33 (Homo sapiens) (UniProt Q9BYT3); test: Inhibition of DNA-tagged human STK33 assessed as percent of control at 50000 nM by qPCR analysis relative to control; set-up: scale not given: the % may be the effect or the level left
[27] = molecular target: Serine/threonine-protein kinase TAO1 (Homo sapiens) (UniProt Q7L7X3); test: Inhibition of DNA-tagged human TAOK1 assessed as percent of control at 50000 nM by qPCR analysis relative to control; set-up: scale not given: the % may be the effect or the level left
[28] = molecular target: Dual specificity testis-specific protein kinase 1 (Homo sapiens) (UniProt Q15569); test: Inhibition of DNA-tagged human TESK1 assessed as percent of control at 50000 nM by qPCR analysis relative to control; set-up: scale not given: the % may be the effect or the level left
[29] = molecular target: Non-receptor tyrosine-protein kinase TNK1 (Homo sapiens) (UniProt Q13470); test: Inhibition of DNA-tagged human TNK1 assessed as percent of control at 50000 nM by qPCR analysis relative to control; set-up: scale not given: the % may be the effect or the level left

Sequence of Protein kinase C theta type (Homo sapiens) (Q04759 whole entry, looked up): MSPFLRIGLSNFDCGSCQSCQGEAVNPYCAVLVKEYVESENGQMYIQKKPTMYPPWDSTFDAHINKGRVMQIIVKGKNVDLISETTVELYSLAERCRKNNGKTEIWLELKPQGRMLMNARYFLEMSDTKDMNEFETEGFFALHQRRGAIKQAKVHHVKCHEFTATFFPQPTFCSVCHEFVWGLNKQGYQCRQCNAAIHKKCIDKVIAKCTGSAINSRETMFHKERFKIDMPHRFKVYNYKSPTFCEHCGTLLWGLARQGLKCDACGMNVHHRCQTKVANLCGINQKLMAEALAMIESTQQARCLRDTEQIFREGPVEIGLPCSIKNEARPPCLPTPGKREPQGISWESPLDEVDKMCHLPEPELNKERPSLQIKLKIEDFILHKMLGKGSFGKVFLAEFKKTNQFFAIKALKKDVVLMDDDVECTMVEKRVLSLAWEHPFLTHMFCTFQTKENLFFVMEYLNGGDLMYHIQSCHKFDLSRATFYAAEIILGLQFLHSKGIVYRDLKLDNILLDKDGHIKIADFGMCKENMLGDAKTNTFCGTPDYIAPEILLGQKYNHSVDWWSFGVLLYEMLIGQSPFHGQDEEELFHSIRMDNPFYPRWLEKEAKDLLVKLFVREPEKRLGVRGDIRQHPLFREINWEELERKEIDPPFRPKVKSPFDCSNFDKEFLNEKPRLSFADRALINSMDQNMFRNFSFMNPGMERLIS
Sequence of Receptor-interacting serine/threonine-protein kinase 1 (Homo sapiens) (Q13546 whole entry, the tested form may be a part): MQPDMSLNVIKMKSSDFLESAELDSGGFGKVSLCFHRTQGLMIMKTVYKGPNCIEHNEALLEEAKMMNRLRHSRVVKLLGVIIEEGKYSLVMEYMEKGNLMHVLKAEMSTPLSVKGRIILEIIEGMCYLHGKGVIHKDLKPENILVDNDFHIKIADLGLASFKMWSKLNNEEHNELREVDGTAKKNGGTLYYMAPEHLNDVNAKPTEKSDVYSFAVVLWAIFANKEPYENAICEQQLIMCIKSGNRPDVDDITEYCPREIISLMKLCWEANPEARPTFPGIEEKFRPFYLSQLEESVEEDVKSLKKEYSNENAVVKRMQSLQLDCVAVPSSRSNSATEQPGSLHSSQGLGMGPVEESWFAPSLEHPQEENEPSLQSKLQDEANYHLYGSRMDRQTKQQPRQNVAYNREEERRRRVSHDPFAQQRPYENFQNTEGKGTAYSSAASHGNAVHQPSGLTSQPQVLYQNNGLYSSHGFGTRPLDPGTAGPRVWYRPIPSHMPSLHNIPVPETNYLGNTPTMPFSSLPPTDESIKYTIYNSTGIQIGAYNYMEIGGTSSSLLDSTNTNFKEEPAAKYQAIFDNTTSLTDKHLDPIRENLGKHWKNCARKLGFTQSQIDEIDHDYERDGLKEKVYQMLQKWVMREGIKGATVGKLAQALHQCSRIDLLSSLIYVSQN
Sequence of Ribosomal protein S6 kinase alpha-5 (Homo sapiens) (O75582 whole entry, looked up, the tested form may be a part): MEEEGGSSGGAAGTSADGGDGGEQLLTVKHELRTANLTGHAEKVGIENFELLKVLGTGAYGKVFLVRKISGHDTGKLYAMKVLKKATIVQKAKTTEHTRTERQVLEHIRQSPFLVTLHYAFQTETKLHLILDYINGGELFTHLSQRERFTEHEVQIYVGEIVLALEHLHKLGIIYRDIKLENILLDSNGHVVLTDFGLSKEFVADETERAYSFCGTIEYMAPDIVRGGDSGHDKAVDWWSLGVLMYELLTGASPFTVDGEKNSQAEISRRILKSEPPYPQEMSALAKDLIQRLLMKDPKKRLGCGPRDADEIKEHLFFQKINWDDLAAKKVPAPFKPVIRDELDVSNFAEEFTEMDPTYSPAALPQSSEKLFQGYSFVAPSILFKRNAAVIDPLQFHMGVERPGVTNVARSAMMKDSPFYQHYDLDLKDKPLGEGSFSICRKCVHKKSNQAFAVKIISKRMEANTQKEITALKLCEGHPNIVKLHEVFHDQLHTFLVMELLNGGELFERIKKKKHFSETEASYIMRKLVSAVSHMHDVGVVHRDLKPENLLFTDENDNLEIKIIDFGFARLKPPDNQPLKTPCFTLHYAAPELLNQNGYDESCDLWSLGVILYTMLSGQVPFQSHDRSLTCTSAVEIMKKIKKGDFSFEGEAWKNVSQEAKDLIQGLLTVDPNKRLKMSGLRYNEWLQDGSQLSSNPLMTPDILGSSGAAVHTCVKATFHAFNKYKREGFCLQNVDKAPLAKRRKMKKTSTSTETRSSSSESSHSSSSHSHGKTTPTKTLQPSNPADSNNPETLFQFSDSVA
Sequence of Mitogen-activated protein kinase 12 (Homo sapiens) (P53778 whole entry): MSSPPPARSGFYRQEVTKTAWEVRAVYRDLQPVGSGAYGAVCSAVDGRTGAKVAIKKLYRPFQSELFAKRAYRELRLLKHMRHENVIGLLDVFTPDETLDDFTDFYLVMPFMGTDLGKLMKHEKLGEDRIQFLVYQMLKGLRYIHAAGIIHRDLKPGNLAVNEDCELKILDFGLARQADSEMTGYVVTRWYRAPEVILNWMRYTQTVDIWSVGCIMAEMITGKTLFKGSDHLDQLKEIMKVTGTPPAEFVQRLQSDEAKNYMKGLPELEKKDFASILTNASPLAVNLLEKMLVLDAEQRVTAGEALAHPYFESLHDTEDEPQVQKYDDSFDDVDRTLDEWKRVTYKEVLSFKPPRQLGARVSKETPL
Sequence of Tyrosine-protein kinase Lck (Homo sapiens) (P06239 2-509 limits assumed): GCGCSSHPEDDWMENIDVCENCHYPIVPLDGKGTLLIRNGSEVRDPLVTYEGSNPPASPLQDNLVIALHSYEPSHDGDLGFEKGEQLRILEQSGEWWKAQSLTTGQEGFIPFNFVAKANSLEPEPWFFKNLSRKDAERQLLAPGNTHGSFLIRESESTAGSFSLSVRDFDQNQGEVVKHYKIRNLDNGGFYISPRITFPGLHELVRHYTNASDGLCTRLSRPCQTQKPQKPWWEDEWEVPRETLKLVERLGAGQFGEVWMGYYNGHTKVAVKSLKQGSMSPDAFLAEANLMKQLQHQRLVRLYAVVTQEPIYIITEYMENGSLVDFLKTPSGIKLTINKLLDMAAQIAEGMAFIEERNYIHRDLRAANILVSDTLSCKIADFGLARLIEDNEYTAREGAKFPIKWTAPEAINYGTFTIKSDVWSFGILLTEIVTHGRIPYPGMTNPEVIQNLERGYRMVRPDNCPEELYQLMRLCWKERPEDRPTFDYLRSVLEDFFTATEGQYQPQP
Sequence of Fibroblast growth factor receptor 1 (Homo sapiens) (P11362 22-822 limits assumed): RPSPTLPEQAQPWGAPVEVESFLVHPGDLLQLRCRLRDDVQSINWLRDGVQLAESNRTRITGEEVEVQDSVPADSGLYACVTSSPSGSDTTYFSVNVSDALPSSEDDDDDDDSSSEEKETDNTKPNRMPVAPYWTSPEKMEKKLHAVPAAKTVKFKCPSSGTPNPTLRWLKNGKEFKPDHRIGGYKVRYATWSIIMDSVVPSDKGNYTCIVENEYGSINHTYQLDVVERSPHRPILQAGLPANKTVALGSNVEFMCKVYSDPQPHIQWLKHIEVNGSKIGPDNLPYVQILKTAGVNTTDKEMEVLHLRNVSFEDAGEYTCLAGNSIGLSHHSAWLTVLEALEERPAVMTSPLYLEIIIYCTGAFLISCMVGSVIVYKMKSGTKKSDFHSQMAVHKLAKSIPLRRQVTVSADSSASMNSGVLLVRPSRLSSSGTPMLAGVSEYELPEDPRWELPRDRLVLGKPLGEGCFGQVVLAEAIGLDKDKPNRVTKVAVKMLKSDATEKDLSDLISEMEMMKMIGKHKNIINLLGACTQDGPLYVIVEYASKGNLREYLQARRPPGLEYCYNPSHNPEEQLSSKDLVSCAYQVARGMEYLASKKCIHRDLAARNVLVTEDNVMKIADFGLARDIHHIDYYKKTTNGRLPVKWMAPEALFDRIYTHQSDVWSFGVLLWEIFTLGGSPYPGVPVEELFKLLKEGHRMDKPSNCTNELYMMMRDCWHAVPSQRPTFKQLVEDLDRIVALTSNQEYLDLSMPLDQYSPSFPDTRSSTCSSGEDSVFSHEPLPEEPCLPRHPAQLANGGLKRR
Sequence of Myosin light chain kinase 2, skeletal/cardiac muscle (Homo sapiens) (Q9H1R3 whole entry): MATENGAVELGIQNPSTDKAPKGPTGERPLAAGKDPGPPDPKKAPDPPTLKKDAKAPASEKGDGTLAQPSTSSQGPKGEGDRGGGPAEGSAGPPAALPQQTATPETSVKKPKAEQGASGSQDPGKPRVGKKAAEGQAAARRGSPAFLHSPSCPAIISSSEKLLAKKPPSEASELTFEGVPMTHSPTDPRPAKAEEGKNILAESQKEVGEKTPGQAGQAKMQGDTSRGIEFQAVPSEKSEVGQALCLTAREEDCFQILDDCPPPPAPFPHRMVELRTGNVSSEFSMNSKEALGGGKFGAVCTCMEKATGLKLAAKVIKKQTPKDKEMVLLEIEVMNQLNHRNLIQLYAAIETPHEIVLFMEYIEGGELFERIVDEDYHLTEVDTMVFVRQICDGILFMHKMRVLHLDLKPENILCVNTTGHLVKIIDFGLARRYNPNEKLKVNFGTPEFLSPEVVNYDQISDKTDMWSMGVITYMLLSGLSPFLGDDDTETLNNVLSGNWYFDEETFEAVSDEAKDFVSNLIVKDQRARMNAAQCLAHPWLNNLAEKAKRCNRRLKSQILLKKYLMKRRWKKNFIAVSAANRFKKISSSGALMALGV
Sequence of Tyrosine-protein kinase Blk (Homo sapiens) (P51451 2-505 limits assumed): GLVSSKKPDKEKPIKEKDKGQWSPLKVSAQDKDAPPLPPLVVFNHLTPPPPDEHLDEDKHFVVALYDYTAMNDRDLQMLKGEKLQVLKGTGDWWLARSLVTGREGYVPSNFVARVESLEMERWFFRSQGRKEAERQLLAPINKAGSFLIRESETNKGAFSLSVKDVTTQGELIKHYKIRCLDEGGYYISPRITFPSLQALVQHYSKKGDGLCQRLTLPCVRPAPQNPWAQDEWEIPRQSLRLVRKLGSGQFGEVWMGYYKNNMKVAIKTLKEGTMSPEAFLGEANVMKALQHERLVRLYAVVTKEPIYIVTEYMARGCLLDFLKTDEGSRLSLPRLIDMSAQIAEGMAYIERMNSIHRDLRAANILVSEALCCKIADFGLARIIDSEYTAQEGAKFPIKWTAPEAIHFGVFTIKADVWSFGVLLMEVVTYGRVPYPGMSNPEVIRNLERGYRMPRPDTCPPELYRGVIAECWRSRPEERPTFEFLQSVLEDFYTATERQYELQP

Compound: CN1C(=O)/C(=C2/C(=O)Nc3ccccc32)c2ccccc21
- Activity [1]: 90%
- Activity [2]: 100%
- Activity [3]: 100%
- Activity [4]: 100%
- Activity [5]: 84%
- Activity [6]: 100%
- Activity [7]: 100%
- Activity [8]: 100%
- Activity [9]: 98%
- Activity [10]: 94%
- Activity (HEL): Active
- Activity [11]: 96%
- Activity [12]: 96%
- Activity [13]: 94%
- Activity [14]: 94%
- Activity [15]: 92%
- Activity [16]: 93%
- Activity [17]: 98%
- Activity [18]: 88%
- Activity [19]: 91%
- Activity [20]: 99%
- Activity [21]: 95%
- Activity [22]: 100%
- Activity [23]: 100%
- Activity [24]: 100%
- Activity [25]: 81%
- Activity [26]: 100%
- Activity [27]: 87%
- Activity [28]: 100%
- Activity [29]: 98%
